Results published in ChEMBL document CHEMBL1201862, “PubChem BioAssay data set” (2004).
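How tested: cells in 96-well plates exposed to compound for 48 hours at five concentrations. At the GI50, growth is halved.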 Active and inactive are the calls of the source. No stated cut-off is given here; in the data, active = GI50 up to about 1.1 µM and inactive = higher.

Experiments:
Assay in all cases: NCI anticancer screen, dose series, 48 h
[1] = test system: HL-60
[2] = test system: NCI-H522
[3] = test system: UO-31
[4] = test system: BT-549
[5] = test system: ACHN
[6] = test system: SK-MEL-5
[7] = test system: NCI/ADR-RES
[8] = test system: SN12C
[9] = test system: RPMI-8226
[10] = test system: SK-OV-3
[11] = test system: NCI-H23
[12] = test system: SNB-75
[13] = test system: UACC-62
[14] = test system: 786-0
[15] = test system: EKVX
[16] = test system: MCF7
[17] = test system: COLO 205
[18] = test system: CAKI-1
[19] = test system: SK-MEL-2

Structure (SMILES) | GI50 [1] | GI50 [2] | GI50 [3] | GI50 [4] | GI50 [5] | GI50 [6] | GI50 [7] | GI50 [8] | GI50 [9] | GI50 [10] | GI50 [11] | GI50 [12] | GI50 [13] | GI50 [14] | GI50 [15] | GI50 [16] | GI50 [17] | GI50 [18] | GI50 [19]
Cc1ccc2c(O)cc(-c3csc4ccccc34)nc2n1 | < 0.01 µM (active) | < 0.01 µM (active) | 0.0138 µM (active) | 0.0183 µM (active) | < 0.01 µM (active) | < 0.0112 µM (active) | < 0.01 µM (active) | 0.0323 µM (active) | < 0.01 µM (active) | < 0.01 µM (active) | 0.0274 µM (active) | < 0.01 µM (active) | < 0.0122 µM (active) | < 0.01 µM (active) | 0.0344 µM (active) | 0.0131 µM (active) | 0.0239 µM (active) | < 0.01 µM (active) | 0.0139 µM (active)
Clc1ccc2c(SCC3CO3)c3ccccc3nc2c1 (stereo unspecified) | 1.04 µM (active) | 2.08 µM (inactive) | 1.76 µM (inactive) | 6.03 µM (inactive) | 2.06 µM (inactive) | 4.84 µM (inactive) | 2.43 µM (inactive) | 2.02 µM (inactive) | 2.42 µM (inactive) | 21.1 µM (inactive) | 3.54 µM (inactive) | 9.55 µM (inactive) | 3.61 µM (inactive) | 1.81 µM (inactive) | 4.9 µM (inactive) | 1.47 µM (inactive) | 3.02 µM (inactive) | 1.49 µM (inactive) | 2.7 µM (inactive)
CC(CC(C#N)(c1ccccc1)c1ccccc1)N1CCCCC1 (stereo unspecified) | 21 µM (inactive) | 18.6 µM (inactive) | 26.2 µM (inactive) | 29.5 µM (inactive) | 43.7 µM (inactive) | 18 µM (inactive) | 28.1 µM (inactive) | 26 µM (inactive) | 19.2 µM (inactive) | 65.6 µM (inactive) | 37.8 µM (inactive) | 29.7 µM (inactive) | 21.3 µM (inactive) | 27.3 µM (inactive) | 23.8 µM (inactive) | 26.5 µM (inactive) | 16.2 µM (inactive) | 39 µM (inactive) | 21.2 µM (inactive)
NCCCCC(N)C(=O)NCCNc1ccc(NCCNC(=O)C(N)CCCCN)c2c1C(=O)c1ccccc1C2=O (stereo unspecified) | > 95.5 µM (inactive) | 3.56 µM (inactive) | 32.3 µM (inactive) | 6.78 µM (inactive) | 35.6 µM (inactive) | > 100 µM (inactive) | 28.2 µM (inactive) | 4.11 µM (inactive) | 31.8 µM (inactive) | 34.4 µM (inactive) | > 65.8 µM (inactive) | 43.2 µM (inactive) | > 100 µM (inactive) | 7.41 µM (inactive) | > 100 µM (inactive) | > 100 µM (inactive) | > 59.8 µM (inactive) | > 84.7 µM (inactive) | > 100 µM (inactive)
C#CCCOC(=O)CC1=C(C)/C(=C/c2ccc([S+](C)[O-])cc2)c2ccc(F)cc21 (stereo unspecified) | 5.79 µM (inactive) | 17.3 µM (inactive) | 15.5 µM (inactive) | 13.8 µM (inactive) | 19.7 µM (inactive) | 12.3 µM (inactive) | 13.3 µM (inactive) | 19.5 µM (inactive) | 11 µM (inactive) | 37 µM (inactive) | 22.2 µM (inactive) | 16.3 µM (inactive) | 13.6 µM (inactive) | 19.8 µM (inactive) | 22.8 µM (inactive) | 19.4 µM (inactive) | 15.2 µM (inactive) | 6.19 µM (inactive) | 15.7 µM (inactive)
O=C1C=C/C(=N/c2ccccc2)c2ccccc21 | 4.89 µM (inactive) | 10.2 µM (inactive) | 10.3 µM (inactive) | 14.7 µM (inactive) | 14.4 µM (inactive) | 1.31 µM (inactive) | 15.1 µM (inactive) | 12.8 µM (inactive) | 12.8 µM (inactive) | 20.4 µM (inactive) | 2.62 µM (inactive) | 6.53 µM (inactive) | 3.52 µM (inactive) | 12.3 µM (inactive) | 2.06 µM (inactive) | 5.74 µM (inactive) | 7.03 µM (inactive) | 14.8 µM (inactive) | 2.19 µM (inactive)
CCCC(=O)OC1C(CO)OC(n2cc(F)c(=O)[nH]c2=O)C1F (stereo unspecified) | 80.5 µM (inactive) | > 100 µM (inactive) | > 100 µM (inactive) | 11.5 µM (inactive) | 44.1 µM (inactive) | 53.2 µM (inactive) | 11.3 µM (inactive) | 15.4 µM (inactive) | 1.57 µM (inactive) | > 100 µM (inactive) | > 100 µM (inactive) | 5.86 µM (inactive) | 24.1 µM (inactive) | 38.5 µM (inactive) | 67 µM (inactive) | 0.604 µM (active) | > 100 µM (inactive) | 50.2 µM (inactive) | > 100 µM (inactive)
O=C1/C(=C\c2ccc(Cl)cc2Cl)Sc2scc(-c3cccc([N+](=O)[O-])c3)[n+]21 | 0.49 µM (active) | 1.43 µM (inactive) | 3.47 µM (inactive) | 4.45 µM (inactive) | 3.33 µM (inactive) | 2.09 µM (inactive) | 8.75 µM (inactive) | 5.33 µM (inactive) | 4.48 µM (inactive) | 41 µM (inactive) | 12.6 µM (inactive) | 19.9 µM (inactive) | 8.65 µM (inactive) | 3.39 µM (inactive) | 7.57 µM (inactive) | 3.98 µM (inactive) | 0.59 µM (active) | 3.03 µM (inactive) | 14.2 µM (inactive)
Brc1ccc(C2=NCSC(c3ccc(Br)cc3)=N2)cc1 | 11 µM (inactive) | 22.2 µM (inactive) | 15.4 µM (inactive) | 52.8 µM (inactive) | 21.7 µM (inactive) | 25.2 µM (inactive) | 30.5 µM (inactive) | 29.6 µM (inactive) | 16.1 µM (inactive) | 43.1 µM (inactive) | 32 µM (inactive) | 24.3 µM (inactive) | 5.3 µM (inactive) | 10.7 µM (inactive) | 11.6 µM (inactive) | 32.2 µM (inactive) | 59.7 µM (inactive) | 7.98 µM (inactive) | 16.6 µM (inactive)
CC1(CCCO)CCCCCCCCCC(C)(CCCO)C1=O (stereo unspecified) | 40 µM (inactive) | > 100 µM (inactive) | > 100 µM (inactive) | > 100 µM (inactive) | > 100 µM (inactive) | > 100 µM (inactive) | > 100 µM (inactive) | > 100 µM (inactive) | > 100 µM (inactive) | > 100 µM (inactive) | > 100 µM (inactive) | > 100 µM (inactive) | > 100 µM (inactive) | > 100 µM (inactive) | > 100 µM (inactive) | > 100 µM (inactive) | > 100 µM (inactive) | > 100 µM (inactive) | 97.5 µM (inactive)
CC(=O)OCc1ccc2c(c1)C(O)NC(=O)O2 (stereo unspecified) | > 100 µM (inactive) | 68.7 µM (inactive) | > 100 µM (inactive) | > 100 µM (inactive) | > 100 µM (inactive) | 72.9 µM (inactive) | > 100 µM (inactive) | 50.7 µM (inactive) | 19.8 µM (inactive) | > 100 µM (inactive) | > 100 µM (inactive) | > 100 µM (inactive) | > 100 µM (inactive) | > 100 µM (inactive) | > 100 µM (inactive) | 78.9 µM (inactive) | > 100 µM (inactive) | > 100 µM (inactive) | > 100 µM (inactive)
Cc1ccc(CC2(OCCN(C)C)CCC(C(C)(C)C)CC2)cc1 (stereo unspecified) | 2.02 µM (inactive) | 4.88 µM (inactive) | 5.33 µM (inactive) | 6.22 µM (inactive) | 8.02 µM (inactive) | 1.58 µM (inactive) | 7.98 µM (inactive) | 5.97 µM (inactive) | 2.21 µM (inactive) | 11.2 µM (inactive) | 11.4 µM (inactive) | 6.71 µM (inactive) | 3.31 µM (inactive) | 1.88 µM (inactive) | 12.3 µM (inactive) | 3.08 µM (inactive) | 1.48 µM (inactive) | 4.21 µM (inactive) | 2.11 µM (inactive)
O=C(Oc1cccc2cccnc12)c1cc2cc(CCl)ccc2oc1=O | 3.22 µM (inactive) | 2.18 µM (inactive) | 9.91 µM (inactive) | 31.5 µM (inactive) | 19 µM (inactive) | 21.9 µM (inactive) | 4.18 µM (inactive) | 10.6 µM (inactive) | 4.94 µM (inactive) | > 100 µM (inactive) | 8.39 µM (inactive) | 56 µM (inactive) | 8.57 µM (inactive) | 20.7 µM (inactive) | 2.4 µM (inactive) | 3.14 µM (inactive) | 6.3 µM (inactive) | 29.9 µM (inactive) | 17.6 µM (inactive)
CC(=O)O[C@H]1C(=O)[C@@]2(C)[C@H]([C@H](OC(=O)c3ccccc3)[C@]3(O)C[C@H](OC(=O)[C@H](O)[C@@H](NC(=O)c4ccccc4)c4ccccc4C)C(C)=C1C3(C)C)[C@]1(OC(C)=O)CO[C@@H]1C[C@@H]2O | 0.0659 µM (active) | 0.556 µM (active) | 6.46 µM (inactive) | 0.687 µM (active) | 2.44 µM (inactive) | 0.406 µM (active) | > 25 µM (inactive) | 2.11 µM (inactive) | 0.0904 µM (active) | 1.02 µM (active) | 0.948 µM (active) | 0.767 µM (active) | 1.22 µM (inactive) | 1.64 µM (inactive) | 7.4 µM (inactive) | 0.113 µM (active) | 0.136 µM (active) | 5.35 µM (inactive) | 2.34 µM (inactive)
